Experimental data published in the Bradley open melting point set (2014).
“And” between values parts separate entries of the source, which are not always exact repeats. Equal entries are not always repeated.

SMILES | melting point
Clc1cc(Cl)c(-c2ccccc2)cc1Cl [2,4,5-Trichlorobiphenyl] | 78 °C
Clc1cc(Cl)c(-c2ccccc2)cc1Cl [2,4,5-trichlorobiphenyl] | 78 °C
C=C[Si]1(C)O[Si](C)(C=C)O[Si](C)(C=C)O[Si](C)(C=C)O1 (stereo not given) [2,4,6,8-tetramethyl-2,4,6,8-tetravinylcyclotetrasiloxane] | -43 °C
Nc1c(Br)cc(Br)cc1Br [2,4,6-Tribromoaniline] | 121 °C
Nc1c(Cl)cc(Cl)cc1Cl [2,4,6-trichloroaniline] | 77 °C
Oc1c(F)cc(F)cc1F [2,4,6-trifluorophenol] | 50 °C
Oc1c(I)cc(I)cc1I [2,4,6-triiodophenol] | 158 °C
COc1cc(OC)c(C=O)c(OC)c1 [2,4,6-trimethoxybenzaldehyde] [listing 1 of 2 here] | 121 °C
COc1cc(OC)c(C=O)c(OC)c1 [2,4,6-trimethoxybenzaldehyde] [listing 2 of 2 here] | 120 °C
Cc1cc(C)c(C(=O)O)c(C)c1 [2,4,6-trimethylbenzoic acid] | 154 °C
C=CCOc1nc(OCC=C)nc(OCC=C)n1 [2,4,6-tris(allyloxy)-1,3,5-triazine] | 27 °C
O=[N+]([O-])c1ccc(Oc2ccc(Cl)cc2Cl)cc1 [2,4-Dichloro-1-(4-nitrophenoxy)benzene] | 70.5 °C
Nc1ccc(F)cc1F [2,4-Difluoroaniline] | -7.5 °C
O=C=N/c1cc(ccc1C)N=C=O [2,4-Diisocyanato-1-methylbenzene] | 20.5 °C
COc1ccc(C=CC(=O)c2ccccc2)c(OC)c1 [2,4-Dimethoxychalcone] | 70 °C
O=[N+]([O-])c1ccc(O)c([N+](=O)[O-])c1 [2,4-Dinitrophenol] | 108 °C
CC(C)(C)c1ccc(O)c(C(C)(C)C)c1 [2,4-di-tert-butylphenol] | 55 °C
Cc1ccc(N)cc1N [2,4-diaminotoluene] | 99 °C
Nc1ccc(Br)cc1Br [2,4-dibromoaniline] | 80 °C
Nc1ccc(Cl)cc1Cl [2,4-dichloroaniline] | 61 °C
NC(=O)c1ccc(Cl)cc1Cl [2,4-dichlorobenzamide] | 192 °C
ClCc1ccc(Cl)cc1Cl [2,4-dichlorobenzyl chloride] | -3 °C
O=[N+]([O-])c1ccc(Cl)cc1Cl [2,4-dichloronitrobenzene] | 31 °C
Oc1ccc(Cl)cc1Cl [2,4-dichlorophenol] | 43 °C and 45 °C and 42.5 °C

SMILES | melting point
NNC(=O)COc1ccc(Cl)cc1Cl [2,4-dichlorophenoxyacetic acid hydrazide] | 151 °C
N#CCOc1ccc(Cl)cc1Cl [2,4-dichlorophenoxyacetonitrile] | 47 °C
O=C(c1ccccc1)c1ccc(O)cc1O [2,4-dihydroxybenzophenone] | 146 °C
COc1ccc(C(C)=O)c(OC)c1 [2,4-dimethoxyacetophenone] | 41 °C
Cc1ccc(N)c(C)c1 [2,4-dimethylaniline] | -15 °C
Cc1ccc(B(O)O)c(C)c1 [2,4-dimethylbenzeneboronic acid] | 206 °C
O=[N+]([O-])c1cc([N+](=O)[O-])c2ccccc2c1O [2,4-dinitro-1-naphthol] | 132 °C
Nc1ccc([N+](=O)[O-])cc1[N+](=O)[O-] [2,4-dinitroaniline] | 178 °C
O=[N+]([O-])c1ccc(O)c([N+](=O)[O-])c1 [2,4-dinitrophenol] | 108 °C
CC1=CC=C(C)C2=C(C)C=CC(C)=C1C2 [2,5,7,10-tetramethylbicyclo[4.4.1]undeca-1,3,5,7,9-pentaene] | 72 °C
Cc1cc(Br)c(C)cc1Br [2,5-Dibromo-p-xylene] | 74 °C
Cc1cc(Cl)c(C)cc1Cl [2,5-Dichloro-p-xylene] | 70 °C
Cc1ccc(C)c(N)c1 [2,5-Xylidine] | 15.5 °C
Cc1cc(Br)c(C)cc1Br [2,5-dibromo-p-xylene] | 73 °C
Cc1cc(Br)ccc1Br [2,5-dibromotoluene] | 6 °C
O=C(O)c1cc(Cl)ccc1Cl [2,5-dichlorobenzoic acid] | 153 °C
O=C(O)c1cc(Cl)ccc1Cl [2,5-dichlorobenzoic_acid] | 156 °C
OB(O)c1cc(Cl)cnc1Cl [2,5-dichloropyridine-3-boronic acid] | 154 °C
Clc1ccc(Cl)nc1 [2,5-dichloropyridine] | 61 °C
NC(=O)c1cc(F)ccc1F [2,5-difluorobenzamide] | 112 °C
O=Cc1cc(O)ccc1O [2,5-dihydroxybenzaldehyde] | 99 °C
O=C(O)Cc1cc(O)ccc1O [2,5-dihydroxyphenylacetic_acid] | 127 °C
COc1ccc(OC)c(C=O)c1 [2,5-dimethoxybenzaldehyde] | 52 °C
COc1ccc(OC)c(S(=O)(=O)Cl)c1 [2,5-dimethoxybenzenesulfonyl chloride] | 114 °C

SMILES | melting point
C=C(C)CCC(=C)C [2,5-dimethyl-1,5-hexadiene] | -75 °C
C/C(C)=CC=C(/C)C [2,5-dimethyl-2,4-hexadiene] | 13 °C
Cc1ccc(C)o1 [2,5-dimethylfuran] | -62 °C
Cc1cc2[nH]c(C)cc(=O)n2n1 [2,5-dimethylpyrazolo[1,5-a]pyrimidin-7(4h)-one] | 253 °C
CC(=O)CCC(C)=O [2,5-hexanedione] | -6 °C
Oc1c(Cl)cccc1Cl [2,6-Dichlorophenol] | 68.5 °C
OB(O)c1c(C(F)(F)F)cccc1C(F)(F)F [2,6-bis(trifluoromethyl)benzeneboronic acid] | 150 °C
Nc1c(Br)cccc1Br [2,6-dibromoaniline] | 80 °C
Cc1cc(Cl)nc(Cl)c1C#N [2,6-dichloro-3-cyano-4-methylpyridine] | 110 °C
O=[N+]([O-])c1cc(Cl)[n+]([O-])c(Cl)c1 [2,6-dichloro-4-nitropyridine n-oxide] | 178 °C
Nc1c(Cl)cccc1Cl [2,6-dichloroaniline] | 40 °C
COc1c(Cl)cccc1Cl [2,6-dichloroanisole] | 10 °C
NC(=O)c1c(Cl)cccc1Cl [2,6-dichlorobenzamide] | 199 °C
N#Cc1c(Cl)cccc1Cl [2,6-dichlorobenzonitrile] | 145 °C
O=C(Cl)c1c(Cl)cccc1Cl [2,6-dichlorobenzoyl chloride] | 17 °C
Oc1c(Cl)cccc1Cl [2,6-dichlorophenol] [listing 1 of 2 here] | 67 °C and 68.5 °C and 65 °C (2×)
Oc1c(Cl)cccc1Cl [2,6-dichlorophenol] [listing 2 of 2 here] | 67 °C
N#Cc1c(F)ccc([N+](=O)[O-])c1F [2,6-difluoro-3-nitrobenzonitrile] | 53 °C
NS(=O)(=O)c1c(F)cccc1F [2,6-difluorobenzenesulfonamide] | 190 °C
O=C(O)Cc1c(F)cccc1F [2,6-difluorophenylacetic acid] | 101 °C
Oc1ccc2cc(O)ccc2c1 [2,6-dihydroxynaphthalene] | 224 °C
COc1cccc(OC)c1B(O)O [2,6-dimethoxybenzeneboronic acid] | 107 °C
COc1cccc(OC)c1CN [2,6-dimethoxybenzylamine] | 85 °C
COc1cccc(OC)c1OCC(=O)O [2,6-dimethoxyphenoxyacetic acid] | 81 °C

SMILES | melting point
Cc1cc(I)cc(C)c1O [2,6-dimethyl-4-iodophenol] | 97 °C
Cc1cc(=O)cc(C)o1 [2,6-dimethyl-4-pyrone] | 134 °C
Cc1cccc(C)c1N [2,6-dimethylaniline] | 12 °C
N#Cc1ccccc1N1CCCCC1 [2-(1-piperidinyl)benzonitrile] | 43 °C
O=C1c2ccccc2C(=O)N1c1nc2ccccc2[nH]1 [2-(1H-Benzimidazol-2-yl)-1H-isoindole-1,3(2H)-dione] | 274 °C
Nc1ccccc1C1C=c2ccccc2=N1 (stereo not given) [2-(1H-Indol-2-yl)anilin] | 153 °C
CC(Oc1cc(Cl)c(Cl)cc1Cl)C(=O)O (stereo not given) [2-(2,4,5-Trichlorophenoxy)propanoic acid] | 176 °C
O=[N+]([O-])c1ccc(Cc2ccccn2)c([N+](=O)[O-])c1 [2-(2,4-Dinitrobenzyl)pyridine] | 92 °C
Oc1ccccc1-c1nc2ccccc2s1 [2-(2-hydroxyphenyl)benzothiazole] | 132 °C
c1ccc2cc(C3CNCCN3)ccc2c1 (stereo not given) [2-(2-naphthyl)piperazine] | 102 °C
c1csc(C2CNCCN2)c1 (stereo not given) [2-(2-thienyl)piperazine] | 83 °C
CC(Oc1cccc(Cl)c1)C(=O)O (stereo not given) [2-(3-chlorophenoxy)propionic acid] | 115 °C
Cc1ccc(-n2ncccc2=O)cc1 [2-(4-Methylphenyl)pyridazin-3(2H)-one] | 97.8 °C
Nc1ccc(C(O)(C(F)(F)F)C(F)(F)F)cc1 [2-(4-aminophenyl)-1,1,1,3,3,3-hexafluoro-2-propanol] | 150 °C
NCCc1ccc(-c2ccccc2)cc1 [2-(4-biphenylyl)ethylamine] | 52 °C
CC(C)(Oc1ccc(Cl)cc1)C(=O)O [2-(4-chlorophenoxy)isobutyric acid] | 120 °C
O=C(O)c1cccnc1Oc1ccc(F)cc1 [2-(4-fluorophenoxy)nicotinic acid] | 184 °C
O=C(O)c1ccccc1/N=N/c1ccc(O)cc1 [2-(4-hydroxyphenyl-azo)benzoic acid] | 206 °C
Cc1ccc(C(=O)c2ccccc2C(=O)O)cc1 [2-(4-methylbenzoyl)benzoic acid] | 140 °C
Nc1cc(C(F)(F)F)ccc1N1CCOCC1 [2-(4-morpholinyl)-5-(trifluoromethyl)aniline] | 127 °C
Cc1ccc(C(=O)c2ccccc2C(=O)O)cc1 [2-(4-toluoyl)benzoic acid] | 138 °C
Cc1ccc(O)c(-c2ccno2)c1 [2-(5-isoxazolyl)-4-methylphenol] | 176 °C
CNCC(O)c1ccccc1 (stereo not given) [2-(Methylamino)-1-phenylethanol] | 75 °C
